# Legend:
# [1] = target: Estrogen receptor (Mus musculus) (UniProt O08537+P19785); test: Relative binding affinity for estrogen receptor; type: protein assay
# [2] = target: T1, Progesterone receptor (Oryctolagus cuniculus) (UniProt P06186); test: Relative binding affinity for progesterone receptor
# T1 sequence (whole entry): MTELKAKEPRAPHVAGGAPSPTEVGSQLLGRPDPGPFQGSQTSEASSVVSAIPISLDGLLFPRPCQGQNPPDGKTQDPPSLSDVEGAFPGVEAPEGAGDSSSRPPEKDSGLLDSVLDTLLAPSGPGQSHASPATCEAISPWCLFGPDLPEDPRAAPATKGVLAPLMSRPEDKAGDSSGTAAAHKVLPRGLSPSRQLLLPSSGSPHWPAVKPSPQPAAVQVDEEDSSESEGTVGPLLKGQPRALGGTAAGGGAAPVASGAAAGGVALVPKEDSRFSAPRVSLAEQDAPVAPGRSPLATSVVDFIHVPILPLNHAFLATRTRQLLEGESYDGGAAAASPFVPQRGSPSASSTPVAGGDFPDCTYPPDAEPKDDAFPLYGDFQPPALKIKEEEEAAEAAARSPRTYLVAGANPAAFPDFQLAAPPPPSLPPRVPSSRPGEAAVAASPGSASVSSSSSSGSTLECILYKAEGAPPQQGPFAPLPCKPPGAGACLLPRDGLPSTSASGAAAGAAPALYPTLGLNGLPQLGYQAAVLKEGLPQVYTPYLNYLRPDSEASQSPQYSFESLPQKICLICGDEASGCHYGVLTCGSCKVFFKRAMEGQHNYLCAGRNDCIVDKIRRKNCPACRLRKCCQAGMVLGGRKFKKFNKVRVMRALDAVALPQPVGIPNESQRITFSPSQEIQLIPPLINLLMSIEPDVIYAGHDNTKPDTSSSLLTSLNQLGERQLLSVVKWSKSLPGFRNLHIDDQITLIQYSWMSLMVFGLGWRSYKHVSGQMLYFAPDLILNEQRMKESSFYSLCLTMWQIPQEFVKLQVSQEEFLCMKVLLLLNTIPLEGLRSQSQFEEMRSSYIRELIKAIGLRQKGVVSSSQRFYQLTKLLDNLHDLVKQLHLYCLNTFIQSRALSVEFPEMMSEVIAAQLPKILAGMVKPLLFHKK
# Estrogen receptor (Mus musculus), sequence (O08537 whole entry, looked up): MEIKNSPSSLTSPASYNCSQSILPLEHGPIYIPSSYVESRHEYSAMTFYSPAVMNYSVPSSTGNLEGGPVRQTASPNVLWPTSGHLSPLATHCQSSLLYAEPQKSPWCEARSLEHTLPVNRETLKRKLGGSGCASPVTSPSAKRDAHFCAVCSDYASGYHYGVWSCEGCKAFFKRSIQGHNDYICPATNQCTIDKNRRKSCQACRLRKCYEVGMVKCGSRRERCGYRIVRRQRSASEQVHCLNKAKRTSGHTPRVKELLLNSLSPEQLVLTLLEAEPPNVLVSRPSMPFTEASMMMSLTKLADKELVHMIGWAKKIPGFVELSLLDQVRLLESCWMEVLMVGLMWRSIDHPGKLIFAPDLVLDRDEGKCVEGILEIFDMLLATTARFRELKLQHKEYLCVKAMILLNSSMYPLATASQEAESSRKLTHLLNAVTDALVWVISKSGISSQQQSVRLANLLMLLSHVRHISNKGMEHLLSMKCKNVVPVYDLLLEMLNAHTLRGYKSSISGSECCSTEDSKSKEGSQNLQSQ
# Estrogen receptor (Mus musculus), sequence (P19785 whole entry, looked up): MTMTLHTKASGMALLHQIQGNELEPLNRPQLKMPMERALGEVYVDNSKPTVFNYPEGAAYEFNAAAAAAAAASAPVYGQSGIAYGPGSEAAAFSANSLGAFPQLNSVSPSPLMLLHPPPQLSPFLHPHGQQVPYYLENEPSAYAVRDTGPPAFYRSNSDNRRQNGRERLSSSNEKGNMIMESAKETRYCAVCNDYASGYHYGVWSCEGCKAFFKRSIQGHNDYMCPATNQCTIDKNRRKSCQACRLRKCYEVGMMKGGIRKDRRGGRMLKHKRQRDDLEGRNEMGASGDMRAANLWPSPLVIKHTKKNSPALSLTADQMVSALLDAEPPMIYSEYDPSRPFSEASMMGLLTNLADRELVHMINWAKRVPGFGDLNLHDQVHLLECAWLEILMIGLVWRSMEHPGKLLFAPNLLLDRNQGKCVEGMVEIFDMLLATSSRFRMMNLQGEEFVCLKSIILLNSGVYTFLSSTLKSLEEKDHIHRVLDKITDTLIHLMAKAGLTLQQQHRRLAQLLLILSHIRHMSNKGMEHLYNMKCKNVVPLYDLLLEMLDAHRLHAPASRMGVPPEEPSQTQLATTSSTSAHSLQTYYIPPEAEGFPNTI
SMILES,relative binding affinity (RBA) [1],relative binding affinity (RBA) [2]
C[C@]12CC[C@H]3[C@@H](CCC4=CC(=O)CC[C@@]43C)[C@@H]1CC[C@@H]2C(=O)C[Se]c1ccccc1,< 0.1,59
CC(=O)[C@H]1CC[C@H]2[C@@H]3CCC4=CC(=O)CC[C@]4(C)[C@H]3CC[C@]12C,< 0.1,100
CC(=O)[C@@]1([Se]c2ccccc2)CC[C@H]2[C@@H]3CCC4=CC(=O)CC[C@]4(C)[C@H]3CC[C@@]21C,< 0.1,2.1

# Reference: ChEMBL document CHEMBL1122289
